Experiments:
Histone deacetylase 3 = Histone deacetylase 3 (Homo sapiens, UniProt O15379); experiment: Inhibition of human HDAC3 using Boc-Lys (acetyl)-AMC as substrate incubated for 1 hr followed by substrate addition and further incubated for 2 hrs by fluorescence assay
Histone deacetylase 4 = Histone deacetylase 4 (Homo sapiens, UniProt P56524); experiment: Inhibition of human HDAC4 using Boc-Lys (tri-fluoroacetyl)-AMC as substrate incubated for 1 hr followed by substrate addition and further incubated for 2 hrs by fluorescence assay
Histone deacetylase 4, sequence (P56524 whole entry): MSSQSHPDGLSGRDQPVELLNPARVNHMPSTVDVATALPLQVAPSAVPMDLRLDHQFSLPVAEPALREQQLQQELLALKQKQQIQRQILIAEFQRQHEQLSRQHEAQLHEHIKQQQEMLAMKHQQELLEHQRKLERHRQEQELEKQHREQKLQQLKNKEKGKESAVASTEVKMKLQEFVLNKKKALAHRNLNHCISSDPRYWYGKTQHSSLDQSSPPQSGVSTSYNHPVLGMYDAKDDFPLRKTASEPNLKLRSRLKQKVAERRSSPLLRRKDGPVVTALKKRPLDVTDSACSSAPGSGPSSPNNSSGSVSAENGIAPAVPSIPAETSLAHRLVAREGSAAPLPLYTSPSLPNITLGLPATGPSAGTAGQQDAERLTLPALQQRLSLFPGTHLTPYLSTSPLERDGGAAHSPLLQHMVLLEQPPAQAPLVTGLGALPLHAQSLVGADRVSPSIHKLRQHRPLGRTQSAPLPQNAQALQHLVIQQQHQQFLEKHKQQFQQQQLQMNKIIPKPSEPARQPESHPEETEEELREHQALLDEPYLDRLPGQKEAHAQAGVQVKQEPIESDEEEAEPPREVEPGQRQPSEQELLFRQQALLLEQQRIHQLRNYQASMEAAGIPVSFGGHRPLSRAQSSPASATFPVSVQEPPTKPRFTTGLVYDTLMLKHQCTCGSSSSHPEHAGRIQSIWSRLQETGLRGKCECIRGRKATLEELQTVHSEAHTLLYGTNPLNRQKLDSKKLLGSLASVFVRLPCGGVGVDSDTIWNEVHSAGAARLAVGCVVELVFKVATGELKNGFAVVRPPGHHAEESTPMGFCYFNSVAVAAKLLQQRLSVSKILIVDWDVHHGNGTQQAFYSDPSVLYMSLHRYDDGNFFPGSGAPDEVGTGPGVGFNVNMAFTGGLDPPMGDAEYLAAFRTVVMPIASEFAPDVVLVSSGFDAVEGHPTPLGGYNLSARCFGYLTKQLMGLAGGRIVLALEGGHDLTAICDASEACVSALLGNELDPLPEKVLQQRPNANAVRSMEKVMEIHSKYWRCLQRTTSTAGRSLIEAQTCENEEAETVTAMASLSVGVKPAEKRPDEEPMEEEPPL

[1] = biological target: T1, Protein deacetylase HDAC6 (Homo sapiens, UniProt Q9UBN7); experiment: Inhibition of human HDAC6 using Boc-Lys (acetyl)-AMC as substrate incubated for 1 hr followed by substrate addition and further incubated for 2 hrs by fluorescence assay
T1 sequence (Q9UBN7 whole entry): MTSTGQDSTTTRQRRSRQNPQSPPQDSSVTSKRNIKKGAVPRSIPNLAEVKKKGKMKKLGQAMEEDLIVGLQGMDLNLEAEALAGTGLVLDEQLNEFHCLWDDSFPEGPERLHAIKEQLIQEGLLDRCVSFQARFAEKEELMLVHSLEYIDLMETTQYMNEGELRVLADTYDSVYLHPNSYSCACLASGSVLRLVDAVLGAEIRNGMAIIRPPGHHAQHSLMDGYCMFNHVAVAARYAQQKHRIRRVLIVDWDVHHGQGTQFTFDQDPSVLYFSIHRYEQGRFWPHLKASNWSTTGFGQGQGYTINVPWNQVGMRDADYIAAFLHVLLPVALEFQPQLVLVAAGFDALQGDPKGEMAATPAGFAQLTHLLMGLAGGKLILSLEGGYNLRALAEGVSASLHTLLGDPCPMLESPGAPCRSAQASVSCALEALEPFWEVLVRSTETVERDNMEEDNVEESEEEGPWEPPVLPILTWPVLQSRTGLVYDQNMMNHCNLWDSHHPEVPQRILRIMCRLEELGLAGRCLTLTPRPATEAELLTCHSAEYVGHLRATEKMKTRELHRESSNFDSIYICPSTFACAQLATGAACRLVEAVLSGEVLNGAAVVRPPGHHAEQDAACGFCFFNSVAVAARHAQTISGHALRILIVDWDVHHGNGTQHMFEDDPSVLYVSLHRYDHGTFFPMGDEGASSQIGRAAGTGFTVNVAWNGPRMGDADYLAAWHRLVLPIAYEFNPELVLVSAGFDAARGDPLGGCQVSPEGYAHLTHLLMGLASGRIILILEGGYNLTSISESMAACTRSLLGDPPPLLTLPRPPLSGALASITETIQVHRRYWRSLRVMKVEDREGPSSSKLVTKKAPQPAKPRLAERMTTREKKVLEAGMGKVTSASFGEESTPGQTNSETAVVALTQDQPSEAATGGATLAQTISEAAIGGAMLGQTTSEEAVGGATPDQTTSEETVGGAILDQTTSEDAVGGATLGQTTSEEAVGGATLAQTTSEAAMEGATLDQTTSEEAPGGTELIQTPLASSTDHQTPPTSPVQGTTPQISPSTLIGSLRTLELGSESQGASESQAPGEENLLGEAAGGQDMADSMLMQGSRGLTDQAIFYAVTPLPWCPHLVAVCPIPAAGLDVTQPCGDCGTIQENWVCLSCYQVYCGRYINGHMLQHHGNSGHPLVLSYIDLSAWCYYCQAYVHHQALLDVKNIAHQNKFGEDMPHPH

Histone deacetylase 7 = biological target: T2, Histone deacetylase 7 (Homo sapiens, UniProt Q8WUI4); experiment: Inhibition of human HDAC7 using Boc-Lys (tri-fluoroacetyl)-AMC as substrate incubated for 1 hr followed by substrate addition and further incubated for 2 hrs by fluorescence assay
T2 sequence (Q8WUI4 whole entry): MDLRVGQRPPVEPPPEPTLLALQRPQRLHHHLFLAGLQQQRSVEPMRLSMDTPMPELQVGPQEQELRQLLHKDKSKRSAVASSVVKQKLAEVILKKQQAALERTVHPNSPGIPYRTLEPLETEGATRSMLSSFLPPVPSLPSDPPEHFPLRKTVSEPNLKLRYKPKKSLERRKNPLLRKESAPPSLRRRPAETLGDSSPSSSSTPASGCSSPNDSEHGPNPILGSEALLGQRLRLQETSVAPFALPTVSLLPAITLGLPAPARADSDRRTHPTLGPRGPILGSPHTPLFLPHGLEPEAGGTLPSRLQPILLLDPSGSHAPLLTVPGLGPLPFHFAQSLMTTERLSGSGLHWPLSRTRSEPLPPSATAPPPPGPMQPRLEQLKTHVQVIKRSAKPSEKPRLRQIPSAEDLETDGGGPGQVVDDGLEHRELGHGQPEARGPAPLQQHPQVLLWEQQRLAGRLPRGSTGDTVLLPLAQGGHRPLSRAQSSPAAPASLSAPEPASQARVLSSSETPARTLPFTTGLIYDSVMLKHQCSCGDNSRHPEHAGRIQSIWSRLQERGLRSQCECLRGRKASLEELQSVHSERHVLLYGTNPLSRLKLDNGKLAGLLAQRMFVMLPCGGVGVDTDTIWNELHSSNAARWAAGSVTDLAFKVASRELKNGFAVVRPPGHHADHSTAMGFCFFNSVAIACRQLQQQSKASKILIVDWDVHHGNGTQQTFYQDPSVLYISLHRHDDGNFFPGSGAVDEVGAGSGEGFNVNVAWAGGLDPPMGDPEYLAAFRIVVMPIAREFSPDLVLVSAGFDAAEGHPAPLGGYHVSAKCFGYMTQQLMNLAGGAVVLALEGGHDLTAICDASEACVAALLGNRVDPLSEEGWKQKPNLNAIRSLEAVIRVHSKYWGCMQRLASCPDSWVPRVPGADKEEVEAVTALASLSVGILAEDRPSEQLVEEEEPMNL

[2] = Stability of compound in human plasma at […] measured after 24 hrs by HPLC analysis; format: ADME, cell-free
[3] = Stability of compound in rat liver homogenate at 0.4 mg/mL measured after 24 hrs by HPLC analysis; format: ADME, tissue-based; settings: tissue homogenate

Histone deacetylase 3, sequence (O15379 whole entry): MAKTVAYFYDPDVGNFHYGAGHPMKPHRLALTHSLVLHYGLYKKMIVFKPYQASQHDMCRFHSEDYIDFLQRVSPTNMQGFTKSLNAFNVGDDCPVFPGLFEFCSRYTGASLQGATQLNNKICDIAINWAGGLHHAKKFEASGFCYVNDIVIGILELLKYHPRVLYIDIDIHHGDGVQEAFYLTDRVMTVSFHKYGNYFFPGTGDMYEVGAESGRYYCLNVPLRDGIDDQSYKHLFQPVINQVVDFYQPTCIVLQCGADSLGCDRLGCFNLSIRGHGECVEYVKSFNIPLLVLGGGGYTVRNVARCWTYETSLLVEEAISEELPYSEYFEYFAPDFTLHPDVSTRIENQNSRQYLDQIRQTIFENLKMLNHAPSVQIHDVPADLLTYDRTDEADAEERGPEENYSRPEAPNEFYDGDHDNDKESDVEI

IC50 (Histone deacetylase 3): 20 nM
IC50 (Histone deacetylase 4): > 10 µM
IC50 [1]: > 10 µM
IC50 (Histone deacetylase 7): > 10 µM
Stability [2]: Stable
Stability [3]: Stable
SMILES: CCCNNC(=O)c1ccc(CNC(=O)[C@H](CC(C)C)NC(=O)[C@@H](O)[C@H](N)Cc2ccccc2)cc1.Cl
